Test results: patent publication US7745450B2, “Pyrazolo[4,3-d]pyrimidines, processes for their preparation and methods for therapy” (Institute of Experimental Botany, priority 2002, dated 2010)
Where two headings read alike, the source gives them in different places.

Legend:
[1] = tested on: Cytokinin-dependent tobacco callus Nicotiana tabacum L. cv. Wisconsins 38; assay: Tobacco callus bioassay for cytotoxicity (herbicidal activity); assay type: cell-based; settings: Nicotiana tabacum, 672 h
Method: The novel compounds have also been tested in tobacco callus bioassay for cytotoxicity (herbicidal activity) and induction of cell death. The compounds to be tested were dissolved in dimethylsulfoxide (DMSO) and the solution brought up to 10^−3 M with distilled water. […] Cytokinin-dependent tobacco callus Nicotiana tabacum L. cv. Wisconsins 38 Murashige-Skoog medium, containing per 1 liter: 4 μmol nicotinic acid, 2.4 μmol pyridoxine hydrochloride, 1.2 μmol thiamine, 26.6 μmol glycine, 1.37 μmol glutamine, 1.8 μmol myo.inositol, 30 g of sucrose, 8 g of agar, […] α-naphthylacetic acid and 0.5 μmol 6-benzylaminopurine. Sub cultivation was carried out every three weeks. Fourteen days before the bioassay, the callus tissue was transferred to the media without 6-benzylaminopurine. Compounds were tested with two different concentrations of 6-benzylaminopurine (10^−5 M and 10^−6 M). Inhibitory growth activity was determined from the increase in fresh callus weight after four weeks of cultivation. Five replicates were prepared for each concentration tested and the entire test was repeated at least twice.

[2] = target: cdk1/cyclin B (CDC2) (Homo sapiens, UniProt P06493); assay: CDK inhibition assay, cdk1/cyclin B (CDC2) kinase, histone phosphorylation; assay type: biochemical
cdk1/cyclin B (CDC2), sequence (P06493 whole entry, species assumed): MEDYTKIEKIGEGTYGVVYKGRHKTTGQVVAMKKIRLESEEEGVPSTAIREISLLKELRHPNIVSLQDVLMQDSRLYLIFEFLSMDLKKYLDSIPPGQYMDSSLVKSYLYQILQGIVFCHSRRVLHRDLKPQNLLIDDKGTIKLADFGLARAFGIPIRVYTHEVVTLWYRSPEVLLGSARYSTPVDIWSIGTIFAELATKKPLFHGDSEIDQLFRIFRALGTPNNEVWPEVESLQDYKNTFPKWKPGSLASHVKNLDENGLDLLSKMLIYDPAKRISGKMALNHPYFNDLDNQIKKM
cdk1/cyclin B (CDC2), sequence (P14635 whole entry partner, species assumed): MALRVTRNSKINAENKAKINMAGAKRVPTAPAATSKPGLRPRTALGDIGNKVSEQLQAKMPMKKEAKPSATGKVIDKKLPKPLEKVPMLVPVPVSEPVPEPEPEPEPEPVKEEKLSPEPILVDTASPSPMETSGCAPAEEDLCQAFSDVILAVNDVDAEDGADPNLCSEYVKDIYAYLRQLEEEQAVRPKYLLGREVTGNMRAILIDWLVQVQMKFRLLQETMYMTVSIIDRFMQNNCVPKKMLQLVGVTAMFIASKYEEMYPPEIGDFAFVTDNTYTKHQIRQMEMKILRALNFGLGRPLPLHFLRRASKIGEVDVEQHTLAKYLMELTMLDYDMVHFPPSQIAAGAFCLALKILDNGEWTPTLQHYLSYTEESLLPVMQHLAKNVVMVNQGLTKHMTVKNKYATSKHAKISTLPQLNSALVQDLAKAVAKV
Method: Selected compounds were tested for cdk1/cyclin B and cdk2/cyclin E inhibitory activity to determine the basic relationships between their interaction energy of docked complex and the inhibitory activity. Cdk2/cyclin E complex was produced in SIP insect cells co-infected with appropriate baculoviral construct. The cells were harvested 70 hours post infection in lysis buffer (50 mM Tris 7.4 pH, 150 mM NaCl, 5 mM EDTA, 20 mM NaF, 1% Tween 20, protease inhibitors) for 30 min on ice and the soluble fraction was recovered by centrifugation at 14.000 g for 10 min. The protein extract was stored at −80° C. until use. The final point test system for kinase activity measurement was used to carry out experiments on the kinetics under linear conditions. The assay mixture contained 1 mg/ml histone (Sigma Type III-S), 15 μM ATP, 0.2 μCi [γ-^32P] ATP and tested compound in a final volume of 20 μl, all in reaction buffer: 50 mM Hepes 7.4 pH, 10 mM MgCl2, 5 mM EGTA, 10 mM 2-glycerolphosphate, 1 mM NaF, 1 mM DTT and protease inhibitors. […] The measurement of kinase inhibition employed the digital imaging analyzer BAS 1800. The kinase activity was expressed as a percentage of maximum activity and the IC50 value was determined by graphic analysis. The kinase activity is expressed as a percentage of maximum activity, the apparent inhibition constants are determined by graphic analysis from dose-response curves presented on FIG. 1.

[3] = target: IκB-α kinase; assay: IκB-α kinase inhibition, in vitro kinase assay; assay type: biochemical
[4] = read-out: 10^−5 M BAP IC50, 10^−5 M 6-benzylaminopurine, four weeks
[5] = read-out: 10^−6 M BAP IC50, 10^−6 M 6-benzylaminopurine, four weeks

Row | Compound | IC50 [1, 4] [nM] | IC50 [1, 5] [nM] | IC50 [2] [nM] | IC50 [3] [nM]
1 | CC(C)c1n[nH]c2c(Nc3cccc(Cl)c3)nc(NC3CCCCC3N)nc12 (stereo not drawn) | > 50000 | 28000 | 4 | 12
2 | Cc1n[nH]c2c(NCc3ccccc3)nc(NC3CCCCC3N)nc12 (stereo not drawn) | > 50000 | 48000 | 30 | 90
3 | CC(C)c1n[nH]c2c(Nc3cccc(Cl)c3)nc(NCCN)nc12 | > 50000 | 48000 | 140 | 250
4 | Cc1n[nH]c2c(NCc3c(N)cccc3Cl)nc(NCCO)nc12 | – | – | 40 | 80
5 | Cc1n[nH]c2c(NCc3ccc(Cl)c(N)c3N)nc(NCCO)nc12 | – | – | 600 | 700
6 | Cc1n[nH]c2c(NCc3ccc(Cl)c(O)c3O)nc(NCCO)nc12 | – | – | 9 | 21
7 | COc1cc(O)c(CNc2nc(NCCO)nc3c(C)n[nH]c23)c(O)c1 | – | – | 4 | 9
8 | Cc1n[nH]c2c(NCc3ccc(Cl)c(N)c3)nc(NCCO)nc12 | – | – | 200 | 800
9 | Cc1n[nH]c2c(N(C)Cc3ccc(O)c(O)c3)nc(NCCO)nc12 | – | – | 700 | 900
10 | CC(C)c1n[nH]c2c(NCc3ccccc3)nc(NCCO)nc12 | – | – | 1000 | 2300
11 | CC(C)c1n[nH]c2c(Nc3cccc(Cl)c3)nc(NCCCN)nc12 | > 50000 | 45000 | 20 | 80
12 | Cc1n[nH]c2c(NCc3ccccc3)nc(NCCCO)nc12 | – | – | 700 | 1800
13 | CC(C)c1n[nH]c2c(Nc3cccc(Cl)c3)nc(NC3CCC(N)CC3)nc12 (stereo not drawn) | > 50000 | 25000 | 1 | 12
14 | Cc1n[nH]c2c(NCc3ccccc3)nc(NC3CCC(N)CC3)nc12 (stereo not drawn) | > 50000 | 43000 | 20 | 50
15 | CC(C)c1n[nH]c2c(NCc3ccccc3)nc(N(CCO)CCO)nc12 | – | – | 400 | 1100
16 | Cc1n[nH]c2c(NCc3ccccc3)nc(N(CCO)CCO)nc12 | – | – | 900 | 2100
17 | CC(=O)Oc1ccccc1CNc1nc(N[C@@H](CO)C(C)C)nc2c(C(C)C)n[nH]c12 | 38000 | 4200 | 6 | 12
18 | CC(C)c1n[nH]c2c(NCc3c(N)cccc3Cl)nc(N[C@@H](CO)C(C)C)nc12 | 38000 | 3700 | 0.9 | 2
19 | CC(C)c1n[nH]c2c(NCc3cccc(Cl)c3O)nc(N[C@@H](CO)C(C)C)nc12 | > 50000 | 9400 | 2 | 4
20 | COc1cccc(CNc2nc(N[C@@H](CO)C(C)C)nc3c(C(C)C)n[nH]c23)c1O | > 50000 | 21600 | 6 | 15
21 | Cc1cccc(CNc2nc(N[C@@H](CO)C(C)C)nc3c(C(C)C)n[nH]c23)c1O | > 50000 | 10700 | 1 | 2
22 | CC(=O)Oc1cccc(CNc2nc(N[C@@H](CO)C(C)C)nc3c(C(C)C)n[nH]c23)c1 | 36000 | 8500 | 20 | 60
23 | CC(C)c1n[nH]c2c(Nc3ccc(Cl)c(N)c3)nc(N[C@@H](CO)C(C)C)nc12 | 25000 | 1800 | 1 | 2
24 | CC(C)c1n[nH]c2c(NCc3ccc(Cl)c(N)c3)nc(N[C@@H](CO)C(C)C)nc12 | > 50000 | 19400 | 2 | 3
25 | CC(C)c1n[nH]c2c(Nc3ccc(O)c(C(=O)O)c3)nc(N[C@@H](CO)C(C)C)nc12 | 18000 | 1200 | 0.4 | 1
26 | CC(C)c1n[nH]c2c(Nc3ccc(Cl)c(C(=O)O)c3)nc(N[C@@H](CO)C(C)C)nc12 | > 50000 | 9600 | 1 | 2
